Laboratory results taken from US11186573B2, “Inhibitors of ROR gamma” (Vitae Pharmaceuticals, LLC, priority 2017, dated 2021).
“Also recorded” adds a separate entry of the source. Where a name gives a salt, the structure may show the parent alone. Values belong to the compound of their own block, whether it stands above or below them.

Key:
Assay type in all cases: physicochemical
[1] = Oxidation/degradation during salt screening and salt preparation; settings: for degradation during preparation: salt preparation / air-drying
Description: A salt/co-crystal screening was conducted under 127 conditions with 20 salt/co-crystal co-formers and seven solvent systems. For each condition, approximately 20 mg of Compound 1 was dispersed in the selected solvent in a glass vial and then salt/co-crystal co-former was added. Observation of slurries were followed by isolation and analysis of the resulting solids. Even though some crystalline solids were isolated and analyzed by XRPD, discoloration, possibly associated with decomposition was also observed (Table 1). Salt-screening experiments yielding a unique XRPD pattern were analyzed by HPLC-UV and were all determined to be primarily composed of degradants.
With the exception of the HBr salt, salt screening was unsuccessful in identifying further options for new forms of Compound 1 because of degradation. […] For example, solvent systems in which Compound 1 has limited solubility were chosen for formation of the HCl and sulfates salts to limit oxidation, while providing enough solubility to promote conversion to crystalline salts. However, this approach is time consuming and not favorable for large scale manufacturing methods.

[2] = Dynamic Vapor Sorption (DVS) moisture uptake
[3] = Slurry in acetone/water (1:1 v/v), hydrate stability at water activity; settings: aw=0.91, acetone/water 1:1 v/v, slurried one week at ambient
Excerpt: Form D can also isolated from the amorphous bis-hydrogen bromide salt form of Compound 1 in a slurry experiment comprising acetone/water (1:1 v/v). For example, a saturated solution the amorphous bis-hydrogen bromide salt form om acetone/water (1:1 v/v) was slurried for one week at ambient and the solid was harvested to obtain Form D. The water activity (aw) of an equal volume mixture of acetone and water is 0.91. See SSCI internal report, Water Activity Calculations using UNIFAC Calculator, SR-20150515.01, dated Jul. 23, 2015. When solvent-free polymorphs are considered, the relative thermodynamic stability of two polymorphs is determined by the Gibbs free energy difference at a given temperature and pressure. However, when hydrate forms are considered, the water activity in the solvent contributes to the relative physical stability and thus, the resulting form. See Qu H, Louhi-Kultanen M, Kallas J. Solubility and stability of anhydrate/hydrate in solvent mixtures. Int J Pharm. 2006; 321:101-107 and Zhu H, Grant D J W. Influence of water activity in organic solvent+water mixtures on the nature of the crystallizing drug phase. 2. Ampicillin. Int J Pharm. 1996; 139:33-43.

[4] = Solubility in re-slurry solvents

susceptibility to oxidation ([1]; particularly in solution): highly susceptible to oxidation
Compound: CCS(=O)(=O)c1ccc(CNC(=O)c2cnc3c(c2)CN(C[C@H]2CC[C@H](C(F)(F)F)CC2)[C@H]3C(C)C)nc1 [Compound 1]

degradation during preparation [1]: did not degrade during preparation
weight change (moisture uptake) ([2]; DVS isotherm, FIG. 16): ≤ 5%
Compound: CCS(=O)(=O)c1ccc(CNC(=O)c2cnc3c(c2)CN(C[C@H]2CC[C@H](C(F)(F)F)CC2)[C@H]3C(C)C)nc1 [bis-hydrogen bromide salt]

degradation during preparation [1]: did not degrade during preparation
amount of water absorbed relative to the corresponding bis-hydrogen bromide form ([2]; DVS, FIGS. 8 and 16): about twice the amount of water
Compound: Br.CCS(=O)(=O)c1ccc(CNC(=O)c2cnc3c(c2)CN(C[C@H]2CC[C@H](C(F)(F)F)CC2)[C@H]3C(C)C)nc1 [mono-hydrogen bromide salt]

composition of isolated salt-screening solid by HPLC-UV ([1]; salt/co-crystal screening of Compound 1): primarily degradants
Compound: adipic acid

stability of the hydrate at water activity [3]: stable
solubility in isopropyl acetate/water mixture compared with heptane/water mixture [4]: greater
solubility in IPAc compared with n-heptane ([4]; re-slurry solvents): slightly higher
Compound: CCS(=O)(=O)c1ccc(CNC(=O)c2cnc3c(c2)CN(C[C@H]2CC[C@H](C(F)(F)F)CC2)[C@H]3C(C)C)nc1 [Form D]
moisture uptake compared with the other solid forms ([2]; DVS isotherm plots, FIG. 16 vs FIGS. 4, 8, 12): significantly less moisture update; also recorded: significantly less than the other forms

degradation during preparation [1]: less degradation than others
Compound: O=S(=O)(O)O [sulfate]
